Measured values as given in patent US7530461B2, “Esters of 5-aminolevulinic acid as photosensitizing agents in photochemotherapy” (PhotoCure ASA, priority 1995, dated 2009).
“Also recorded” adds a separate entry of the source.

Columns and labels:
[1] = tested on: basal cell carcinoma (BCC) lesions and surrounding normal skin; assay: PpIX fluorescence in human BCC and surrounding normal skin by optical-fiber based system; type: in vivo; conditions: 20% for 4 hours, topical
Procedure: The PpIX fluorescence in the BCC lesions and surrounding normal skin of human patients was measured in situ by optical-fiber based system after topical application of 20% free ALA and its derivatives for various time intervals.
The PpIX fluorescence ratios between BCC lesions and surrounding normal skin after topical application of ALA or its esters (20% for 4 hours), was examined using methods described in previous examples.

[2] = tested on: cervical intraepithelial lesions (CIN); assay: Fluorescence detection of cervical intraepithelial lesions using HAL; type: in vivo, human
Procedure: This study involved 32 non-pregnant women with histologically proven squamous intraepithelial lesions (CIN).
5 to 20 ml of a cold-cream containing 0.5% (w/w) HAL hydrochloride was applied locally by means of a cervical cap. Random biopsies were performed at time points ranging from 5 min to 7 hours to assess the selective accumulation of HAL, as shown by fluorescence images. Image analysis on frozen tissue sections was carried out using a Zeiss Axiophot image analysis system.
A total of 112 biopsies were obtained from 32 patients. From these biopsies approximately 2000 fluorescence images were produced. […] Immediately after the biopsies were taken, the tissue was quickly frozen in liquid nitrogen and stored at −70° C. prior to use in order to stop any formation/degradation of cellular porphyrins. Tissue sections were prepared in the dark to avoid photobleaching. The frozen tissue blocks were mounted in Tissue Tek embedding compound (BDH) and a series of sections were prepared using a cryostat. Tissue sections were mounted on glass slides and images were recorded with a grey-scale camera. A band pass filter (BP395-440 nm) was used for excitation, while a second band-pass filter was used to record the specific Pp fluorescence.

[3] = tested on: bladder cancer cells from patient urine; assay: Detection of bladder cancer cells in urine; type: cell-based, human; conditions: 40 μg/ml or 0.15 mM, 4 hours at 37° C., blue light 390-440 nm
Procedure: Urine of a patient with bladder cancer was centrifuged (1500 rpm for 5 min) and resuspended into cell growth medium containing 10% fetal calf serum and HAL hydrochloride (40 μg/ml or 0.15 mM) for 4 hours at 37° C. in the dark. The cells fluoresced under blue light (390-440 nm) after being incubated with HAL HCl (FIG. 28). […] This was confirmed by cytology.

[4] = tested on: Human transitional cell carcinoma cells (T24); assay: Induced fluorescence in T24 cells in vitro; type: cell-based
Procedure: Human transitional cell carcinoma cells (T24) were used. ALA and ALA esters were dissolved in growth medium not containing serum. Fluorescence was observed using an excitation wavelength of 410 nm and detecting emission at 640 nm.

[5] = tested on: bladder carcinoma in situ (CIS) and other bladder tumor lesions; assay: HAL fluorescence detection of bladder lesions vs. white light cystoscopy; type: in vivo, human
Procedure: Photodynamic detection of bladder carcinoma in situ (CIS) (flat cancer lesions) after exposure to a hexyl aminolevulinate composition (8 mM HAL in PBS: 4.3 mM KH2PO4, 4.3 mM Na2HPO4, 120 mM NaCl, pH 6.0) for one hour was performed and compared to white light cystoscopy in patients with bladder cancer (FIG. 31).
About 50 ml of HAL solution was instilled into the bladder. The solution was allowed to remain in the bladder for one hour. After bladder evacuation, the bladder was inspected by using a cystoscope (Storz D-Light, Karl Storz, Tuttlingen, Germany) and mapped under white light followed by inspection and mapping of all fluorescing lesions using blue light (380-450 nm) (light of wavelength of about 405 nm could have been used as the PpIX absorption spectrum includes a maximum near 405 nm). After mapping of the lesions in white and blue light separately, biopsies and resected tissue were obtained of all lesions and suspicious areas. Finally, one biopsy from normal appearing urothelium (negative in white and blue light) was taken. Tissue material was prepared by the local pathlogist and examined by both local and a central pathologist to verify the diagnosis.
In another study, an HAL composition detected 98% of tumor lesions in patients (regardless of tumor type), whereas use of white light identified only 73% of the lesions. The HAL solution composition and instillation and cystoscopy procedure is described above. The cystoscopy findings were verified by examination (by a pathologist) of 5 random biopsies taken from each patient. There were a total of 143 verified tumors in 45 patients including carcinoma in situ (CIS) and Ta or T1 lesions. HAL cystoscopy was performed in 43 of the patients with a detection rate of 96% (43/45). White light cystoscopy was performed in 33 of the patients with a detection rate of 73% (33/45).

CCCCCCOC(=O)CCC(=O)CN.Cl [HAL, n-hexyl 5-aminolevulinate hydrochloride]
PpIX fluorescence ratios between BCC lesions and surrounding normal skin (selectivity) compared with free ALA [1]: more selectively induce PpIX in BCC lesions than free ALA | fluorescence of cervical lesions after topical application ([2]; 0.5% (w/w) HAL hydrochloride cold-cream, hydrochloride): excellent fluorescence; also recorded: high and homogenous fluorescence in the lesions | adverse reactions / tolerability ([2]; 0.5% cream applied to the cervix, patients, hydrochloride): No local or systemic adverse reactions; also recorded: well tolerated | fluorescence after 5 minutes application ([2]; 0.5% cream, 5 minutes): low | fluorescence throughout the lesion at application times of 30 minutes and longer ([2]; 0.5% cream, 30 minutes and longer): high and homogenous fluorescence throughout the lesion | selectivity of fluorescence for precancerous lesions ([2]; 0.5% cream, cervical biopsies of CIN lesions): excellent selectivity for precancerous lesions | selectivity at application time more than three hours ([2]; 0.5% cream, more than three hours): the selectivity was reduced | selectivity after 1-2 hour application ([2]; HAL 0.5% cream, 1-2 hour): excellent | fluorescence of urine cells under blue light [3]: only cancer cells fluoresced | maximum fluorescence relative to the maximum induced by aminolevulinic acid ([4]; same conditions): nearly three times | concentration inducing maximum fluorescence in cells in vitro ([4]; serum-free medium, excitation 410 nm, emission 640 nm): about 13 mM | CIS lesion detection rate as verified by biopsies ([5]; 8 mM HAL in PBS, one hour instillation, 218 patients for analysis): 97% | carcinoma in situ lesions identified in patients with CIS lesions only ([5]; 13 patients with CIS lesions only, 12/13): 92% | detection rate of HAL cystoscopy (patients) ([5]; another study, 43/45): 96% | tumor lesions detected (regardless of tumor type) ([5]; another study, 143 verified tumors in 45 patients): 98%
